Measured values: US20240150377A1, “MODULATORS OF CYSTIC FIBROSIS TRANSMEMBRANE CONDUCTANCE REGULATOR” (VERTEX PHARMACEUTICALS INCORPORATED, priority 2020, published 2024)
Where two headings read alike, the source gives them in different places.

Target: T1, CFTR (Homo sapiens, UniProt P13569, DEL508-508)
T1 construct: endogenous in cells; host or cells: primary human bronchial epithelial cells from CF subjects (F508del/MF-HBE), differentiated at air-liquid interface
Test: HBE assay: Ussing chamber assay of CFTR-mediated short-circuit currents
Type: cell-based
Details: for activation at 10 µM: read-out: HBE Activity at 10 μM (%); for Emax: read-out: HBE Max Activity (%)
In short: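 CFTR-mediated Isc (μA/cm²) equals the peak response to apical 20 μM forskolin minus the residual after a 20 μM each BPO/GlyH-101/CFTR inhibitor 172 cocktail, recorded in Ussing chambers at Vhold 0 mV, 37 °C, pH 7.4, with 30 μM apical amiloride. Cells were F508del/MF HBE cultures preincubated 18-24 h with corrector (concentration range or 10 μM) plus 1 μM ivacaftor in 20% human serum.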

T1 sequence (P13569 with tags, fused parts or gaps DEL508-508): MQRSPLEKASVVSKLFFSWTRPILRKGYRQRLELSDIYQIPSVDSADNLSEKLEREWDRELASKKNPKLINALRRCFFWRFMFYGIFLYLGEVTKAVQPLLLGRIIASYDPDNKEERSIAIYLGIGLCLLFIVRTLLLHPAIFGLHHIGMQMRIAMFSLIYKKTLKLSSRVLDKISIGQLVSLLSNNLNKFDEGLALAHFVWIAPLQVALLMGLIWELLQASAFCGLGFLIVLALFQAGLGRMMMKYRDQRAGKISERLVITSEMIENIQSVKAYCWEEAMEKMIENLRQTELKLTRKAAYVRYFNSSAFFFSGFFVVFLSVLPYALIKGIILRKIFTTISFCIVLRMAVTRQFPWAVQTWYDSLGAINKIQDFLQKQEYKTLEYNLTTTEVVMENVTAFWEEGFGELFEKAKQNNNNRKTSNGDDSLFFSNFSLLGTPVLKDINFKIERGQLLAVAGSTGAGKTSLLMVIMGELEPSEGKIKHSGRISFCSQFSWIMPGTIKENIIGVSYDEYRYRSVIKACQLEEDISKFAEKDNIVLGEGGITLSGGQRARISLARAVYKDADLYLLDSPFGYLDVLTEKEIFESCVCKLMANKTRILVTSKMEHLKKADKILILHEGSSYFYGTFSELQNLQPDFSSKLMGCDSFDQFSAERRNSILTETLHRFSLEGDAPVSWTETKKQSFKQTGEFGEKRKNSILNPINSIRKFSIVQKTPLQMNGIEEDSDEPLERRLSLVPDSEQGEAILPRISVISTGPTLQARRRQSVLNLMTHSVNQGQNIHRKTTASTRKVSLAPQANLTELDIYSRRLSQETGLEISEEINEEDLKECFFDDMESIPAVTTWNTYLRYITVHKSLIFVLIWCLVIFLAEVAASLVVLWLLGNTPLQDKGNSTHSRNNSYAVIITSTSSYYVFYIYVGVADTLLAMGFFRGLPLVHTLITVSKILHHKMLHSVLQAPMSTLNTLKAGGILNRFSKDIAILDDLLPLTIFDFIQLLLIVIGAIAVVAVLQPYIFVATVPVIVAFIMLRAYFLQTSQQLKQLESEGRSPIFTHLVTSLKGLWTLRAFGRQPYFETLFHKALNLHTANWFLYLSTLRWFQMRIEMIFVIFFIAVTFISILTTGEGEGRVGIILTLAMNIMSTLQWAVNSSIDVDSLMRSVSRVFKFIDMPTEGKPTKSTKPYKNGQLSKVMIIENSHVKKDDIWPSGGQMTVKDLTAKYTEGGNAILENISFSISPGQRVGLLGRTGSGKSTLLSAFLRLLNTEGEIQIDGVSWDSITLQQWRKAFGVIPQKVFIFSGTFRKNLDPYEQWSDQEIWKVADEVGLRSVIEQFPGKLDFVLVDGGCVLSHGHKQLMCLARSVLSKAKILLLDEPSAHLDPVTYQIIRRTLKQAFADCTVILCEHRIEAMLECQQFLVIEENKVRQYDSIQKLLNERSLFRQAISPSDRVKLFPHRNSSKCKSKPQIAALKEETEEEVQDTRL

Row | SMILES | EC50 (Table 12, read-out: HBE EC50) | Emax (Table 12) | other results
1 | Cc1cccc(C)c1-c1cc2nc(n1)NS(=O)(=O)c1cccc(c1)C(=O)N(Cc1nccc(C(C)C(C)C)n1)[C@H](CC(C)(C)C)CO2 (some centres unmarked) [Compound 538] | – | – | activation at 10 µM (Table 13): > 600%
2 | Cc1cccc(C)c1-c1cc2nc(n1)NS(=O)(=O)c1cccc(c1)C(=O)N(Cc1cccc(N3CCCC3C(N)=O)n1)[C@H](CC(C)(C)C)CO2 (some centres unmarked) [Compound 539] | – | – | activation at 10 µM (Table 13): > 600%
3 | Cc1cccc(C)c1-c1cc2nc(n1)NS(=O)(=O)c1cccc(c1)C(=O)N(Cc1ncc(N3CC[C@](C)(O)C3)cn1)[C@H](CC(C)(C)C)CO2 [Compound 541] | < 1 µM | > 60% | –
4 | Cc1cccc(C)c1-c1cc2nc(n1)NS(=O)(=O)c1cccc(c1)C(=O)N(Cc1ncc(N3CC[C@@](C)(O)C3)cn1)[C@H](CC(C)(C)C)CO2 [Compound 542] | < 1 µM | > 60% | –
5 | COC1(C)CCN(c2cnc(CN3C(=O)c4cccc(c4)S(=O)(=O)Nc4nc(cc(-c5c(C)cccc5C)n4)OC[C@H]3CC(C)(C)C)nc2)C1 (some centres unmarked) [Compound 543] | < 1 µM | > 60% | –
6 | COc1cccc(C)c1-c1cc2nc(n1)NS(=O)(=O)c1cccc(c1)C(=O)N(Cc1cncc(N(C)CC(C)(C)C)n1)[C@H](CC(C)(C)C)CO2 [Compound 544] | – | – | activation at 10 µM (Table 12): > 600%
7 | Cc1cccc(C)c1-c1cc2nc(n1)NS(=O)(=O)c1cccc(c1)C(=O)N(Cc1ncc(N3CC4CC3CO4)cn1)[C@H](CC(C)(C)C)CO2 (some centres unmarked) [Compound 545] | < 1 µM | > 60% | –
8 | Cc1cccc(C)c1-c1cc2nc(n1)NS(=O)(=O)c1cccc(c1)C(=O)N(Cc1ncc(N3CC4CC3CO4)cn1)[C@H](CC(C)(C)C)CO2 (some centres unmarked) [Compound 546] | < 1 µM | – | –
9 | Cc1cccc(C)c1-c1cc2nc(n1)NS(=O)(=O)c1cccc(c1)C(=O)N(Cc1cccc(N3CCCC3C(C)C)n1)[C@H](CC(C)(C)C)CO2 (some centres unmarked) [Compound 547] | < 1 µM | > 60% | –
10 | Cc1cccc(C)c1-c1cc2nc(n1)NS(=O)(=O)c1cccc(c1)C(=O)N(Cc1cccc(N3CCCC3C(C)C)n1)[C@H](CC(C)(C)C)CO2 (some centres unmarked) [Compound 548] | < 1 µM | – | –
11 | Cc1cccc(C)c1-c1cc2nc(n1)NS(=O)(=O)c1cccc(c1)C(=O)N(Cc1cccc(N3CCCC3C(F)(F)F)n1)[C@H](CC(C)(C)C)CO2 (some centres unmarked) [Compound 549] | – | – | activation at 10 µM (Table 12): > 600%
12 | Cc1cccc(C)c1-c1cc2nc(n1)NS(=O)(=O)c1cccc(c1)C(=O)N(Cc1cncc(N(C)CC(C)(C)C)n1)[C@H](CC(C)C)CO2 [Compound 551] | < 1 µM | > 60% | –
13 | Cc1cccc(C)c1-c1cc2nc(n1)NS(=O)(=O)c1cccc(c1)C(=O)N(Cc1nccc(N(C)C(C)C)n1)[C@H](CC(C)C)CO2 [Compound 552] | – | – | activation at 10 µM (Table 12): > 600%
14 | Cc1cccc(C)c1-c1cc2nc(n1)NS(=O)(=O)c1cccc(c1)C(=O)N(Cc1ncc(N3CCC(C)(O)C3)cn1)[C@H](CC(C)(C)C)CO2 (some centres unmarked) [Compound 553] | – | – | activation at 10 µM (Table 12): > 600%
15 | Cc1cccc(C)c1-c1cc2nc(n1)NS(=O)(=O)c1cccc(c1)C(=O)N(Cc1ncc(N3C4CCC3CC4)cn1)[C@H](CC(C)(C)C)CO2 [Compound 554] | – | > 60% | EC50 (HBE EC50 (μM), Table 12): < 1 µM
16 | CC(C)=C(C)c1ccnc(CN2C(=O)c3cccc(c3)S(=O)(=O)Nc3nc(cc(-c4c(C)cccc4C)n3)OC[C@H]2CC(C)(C)C)n1 [Compound 555] | – | – | activation at 10 µM (Table 12): > 600%
17 | Cc1cccc(C)c1-c1cc2nc(n1)NS(=O)(=O)c1cccc(c1)C(=O)N(Cc1ncc(OC3CCOCC3)cn1)[C@H](CC(C)(C)C)CO2 [Compound 556] | < 1 µM | > 60% | –
18 | Cc1cccc(C)c1-c1cc2nc(n1)NS(=O)(=O)c1cccc(c1)C(=O)N(Cc1ncc(OC(=O)OC(C)(C)C)cn1)[C@H](CC(C)(C)C)CO2 [Compound 557] | – | – | activation at 10 µM (Table 12): > 600%
19 | Cc1cccc(C)c1-c1cc2nc(n1)NS(=O)(=O)c1cccc(c1)C(=O)N(Cc1ncc(OC3CCC3)cn1)[C@H](CC(C)(C)C)CO2 [Compound 558] | < 1 µM | > 60% | –
20 | Cc1cccc(C)c1-c1cc2nc(n1)NS(=O)(=O)c1cccc(c1)C(=O)N(Cc1ncc(OCCOC(C)C)cn1)[C@H](CC(C)(C)C)CO2 [Compound 559] | < 1 µM | > 60% | –
21 | Cc1cccc(C)c1-c1cc2nc(n1)NS(=O)(=O)c1cccc(c1)C(=O)N(Cc1ncc(OC3CC4(CC4)C3)cn1)[C@H](CC(C)(C)C)CO2 [Compound 560] | < 1 µM | > 60% | –
22 | Cc1cccc(C)c1-c1cc2nc(n1)NS(=O)(=O)c1cccc(c1)C(=O)N(Cc1ncc(OC3CCCCC3)cn1)[C@H](CC(C)(C)C)CO2 [Compound 561] | < 1 µM | > 60% | activation at 10 µM (Table 12): > 600%
23 | Cc1cccc(C)c1-c1cc2nc(n1)NS(=O)(=O)c1cccc(c1)C(=O)N(Cc1cccc(N3CCCC34CCC4)n1)[C@H](CC(C)(C)C)CO2 [Compound 562] | < 1 µM | > 60% | –

Row | SMILES | EC50 (Table 12, read-out: HBE EC50) | Emax (Table 12) | other results
24 | Cc1cccc(C)c1-c1cc2nc(n1)NS(=O)(=O)c1cccc(c1)C(=O)N(Cc1ncc(N3C4CCC3COC4)cn1)[C@H](CC(C)(C)C)CO2 [Compound 563] | – | > 60% | EC50 (HBE EC50 (μM), Table 12): < 1 µM
25 | COCCN(c1cccc(CN2C(=O)c3cccc(c3)S(=O)(=O)Nc3nc(cc(-c4c(C)cccc4C)n3)OC[C@H]2CC(C)(C)C)n1)C(C)C [Compound 564] | < 1 µM | > 60% | –
26 | Cc1cccc(C)c1-c1cc2nc(n1)NS(=O)(=O)c1cccc(c1)C(=O)N(Cc1cccc(N3CCC34CCCC4)n1)[C@H](CC(C)(C)C)CO2 [Compound 565] | < 1 µM | > 60% | –
27 | Cc1cccc(C)c1-c1cc2nc(n1)NS(=O)(=O)c1cccc(c1)C(=O)N(Cc1ncc(OC3CCCC3)cn1)[C@H](CC(C)(C)C)CO2 [Compound 566] | < 1 µM | > 60% | –
28 | Cc1cccc(C)c1-c1cc2nc(n1)NS(=O)(=O)c1cccc(c1)C(=O)N(Cc1ncc(OCC(C)(C)C)cn1)[C@H](CC(C)(C)C)CO2 [Compound 567] | < 1 µM | > 60% | –
29 | Cc1cccc(C)c1-c1cc2nc(n1)NS(=O)(=O)c1cccc(c1)C(=O)N(Cc1ncc(N3CCC(OC(C)C)CC3)cn1)[C@H](CC(C)(C)C)CO2 [Compound 568] | < 1 µM | > 60% | –
30 | Cc1cccc(C)c1-c1cc2nc(n1)NS(=O)(=O)c1cccc(c1)C(=O)N(Cc1ncc(N3CCC[C@@H]3C)cn1)[C@H](CC(C)(C)C)CO2 [Compound 569] | < 1 µM | > 60% | –
31 | COC[C@H]1CCCN1c1cnc(CN2C(=O)c3cccc(c3)S(=O)(=O)Nc3nc(cc(-c4c(C)cccc4C)n3)OC[C@H]2CC(C)(C)C)nc1 [Compound 570] | < 1 µM | > 60% | –
32 | COC[C@@H]1CCCN1c1cnc(CN2C(=O)c3cccc(c3)S(=O)(=O)Nc3nc(cc(-c4c(C)cccc4C)n3)OC[C@H]2CC(C)(C)C)nc1 [Compound 571] | < 1 µM | > 60% | –
33 | Cc1cccc(C)c1-c1cc2nc(n1)NS(=O)(=O)c1cccc(c1)C(=O)N(Cc1ncc(N3CCC[C@H]3C)cn1)[C@H](CC(C)(C)C)CO2 [Compound 572] | < 1 µM | > 60% | –
34 | Cc1cccc(C)c1-c1cc2nc(n1)NS(=O)(=O)c1cccc(c1)C(=O)N(Cc1cccc(N3CCC[C@H]3C)n1)[C@H](CC(C)C)CO2 [Compound 573] | < 1 µM | > 60% | –
35 | Cc1cccc(C)c1-c1cc2nc(n1)NS(=O)(=O)c1cccc(c1)C(=O)N(Cc1ncc(CC(C)C)cn1)[C@H](CC(C)C)CO2 [Compound 574] | < 1 µM | > 60% | –
36 | Cc1cccc(C)c1-c1cc2nc(n1)NS(=O)(=O)c1cccc(c1)C(=O)N(Cc1ncc(N(C)C3CC4(CC4)C3)cn1)[C@H](CC(C)(C)C)CO2 [Compound 575] | < 1 µM | > 60% | –
37 | COc1cccc(C)c1-c1cc2nc(n1)NS(=O)(=O)c1cccc(c1)C(=O)N(Cc1ncc(CC(C)C)cn1)[C@H](CC(C)(C)C)CO2 [Compound 576] | – | – | activation at 10 µM (Table 12): > 600%
38 | CC(C)=C(C)c1cccc(CN2C(=O)c3cccc(c3)S(=O)(=O)Nc3nc(cc(-c4c(C)cccc4C)n3)OC[C@H]2CC(C)(C)C)n1 [Compound 577] | – | – | activation at 10 µM (Table 12): > 600%
39 | COc1cccc(C)c1-c1cc2nc(n1)NS(=O)(=O)c1cccc(c1)C(=O)N(Cc1cccc(N3CCCC3C)n1)[C@H](CC(C)(C)C)CO2 (some centres unmarked) [Compound 578] | – | – | activation at 10 µM (Table 12): < 30%
40 | COc1cccc(C)c1-c1cc2nc(n1)NS(=O)(=O)c1cccc(c1)C(=O)N(Cc1ncc(N3CCC(C)(C)C3)cn1)[C@H](CC(C)(C)C)CO2 [Compound 579] | < 1 µM | > 60% | –
41 | Cc1cccc(C)c1-c1cc2nc(n1)NS(=O)(=O)c1cccc(c1)C(=O)N(Cc1ncc(N3CCC4(COC4)C3)cn1)[C@H](CC(C)(C)C)CO2 [Compound 580] | < 1 µM | > 60% | –
42 | Cc1cccc(C)c1-c1cc2nc(n1)NS(=O)(=O)c1cccc(c1)C(=O)N(Cc1cccc(N(C)C3CC4(CC4)C3)n1)[C@H](CC(C)(C)C)CO2 [Compound 581] | < 1 µM | > 60% | –
43 | Cc1cccc(C)c1-c1cc2nc(n1)NS(=O)(=O)c1cccc(c1)C(=O)N(Cc1cccc(CCC(C)(C)C)n1)[C@H](CC(C)(C)C)CO2 [Compound 582] | < 1 µM | > 60% | –
44 | Cc1cccc(C)c1-c1cc2nc(n1)NS(=O)(=O)c1cccc(c1)C(=O)N(Cc1cccc(CC(C)C)n1)[C@H](CC(C)(C)C)CO2 [Compound 583] | < 1 µM | > 60% | –
45 | Cc1cccc(C)c1-c1cc2nc(n1)NS(=O)(=O)c1cccc(c1)C(=O)N(Cc1ccnc(C(C)C)n1)[C@H](CC(C)(C)C)CO2 [Compound 584] | < 1 µM | > 60% | –
46 | COC1(C)CN(c2cnc(CN3C(=O)c4cccc(c4)S(=O)(=O)Nc4nc(cc(-c5c(C)cccc5C)n4)OC[C@H]3CC(C)(C)C)nc2)C1 [Compound 585] | < 1 µM | > 60% | –
